Data from PMC5299597, “Evaluation of the safety, pharmacokinetics, pharmacodynamics, and drug-drug interaction potential of a selective Lp-PLA2 inhibitor (GSK2647544) in healthy volunteers” (International Journal of Clinical Pharmacology and …, 2016).

Legend:
[1] = design: method as in PMID 9461591; details: DM/HC pigs, vs untreated; cited from earlier work
[2] = Study 2: safety and tolerability (adverse events); details: by treatment: simvastatin 10 mg SD N = 12; GSK2647544 80 mg b.i.d. 7 days + simvastatin N = 9
CYP3A4 [3] = target: T1, CYP3A4 (Homo sapiens, UniProt P08684); details: A1+S vs S, the 9 subjects who received both
CYP3A4 [4] = target: T1, CYP3A4; assay: clinical; details: plasma, oral; for AUC(0-t): AUC(0-t) of analyte; for AUC(0-t) / Cmax: geometric mean (CVb%); for Cmax: Cmax of analyte
[5] = phase 2a study; cited from earlier work
[6] = 10 mg, S = simvastatin 10 mg SD alone
[7] = A1+S = simvastatin 10 mg SD plus GSK2647544 80 mg b.i.d. for 7 days
[8] = P1+S = simvastatin 10 mg SD plus matched placebo b.i.d. for 7 days

T1 sequence (P08684 whole entry): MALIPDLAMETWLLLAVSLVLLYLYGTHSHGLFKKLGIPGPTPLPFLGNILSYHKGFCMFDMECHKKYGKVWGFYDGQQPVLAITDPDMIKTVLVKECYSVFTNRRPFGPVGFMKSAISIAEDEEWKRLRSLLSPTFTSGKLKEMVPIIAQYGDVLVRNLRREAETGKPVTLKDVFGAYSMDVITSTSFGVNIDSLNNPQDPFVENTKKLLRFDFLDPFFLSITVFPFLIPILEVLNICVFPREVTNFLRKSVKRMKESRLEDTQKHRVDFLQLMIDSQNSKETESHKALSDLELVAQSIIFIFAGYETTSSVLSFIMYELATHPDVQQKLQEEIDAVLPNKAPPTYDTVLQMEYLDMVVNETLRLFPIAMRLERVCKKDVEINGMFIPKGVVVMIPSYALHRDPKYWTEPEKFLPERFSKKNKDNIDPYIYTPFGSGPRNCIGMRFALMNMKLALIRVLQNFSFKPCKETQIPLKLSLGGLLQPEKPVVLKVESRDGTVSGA

CCN(CC)CCN(Cc1ccc(-c2ccc(C(F)(F)F)cc2)cc1)C(=O)Cn1c(SCc2ccc(F)cc2)nc(=O)c2c1CCC2 [darapladib]
extent of immunoglobulin-G brain parenchyma penetration [1]: numerically reduced
total amount of brain amyloid-β peptide 1-42 deposition [1]: significantly lowered

CCC(C)(C)C(=O)O[C@H]1C[C@@H](C)C=C2C=C[C@H](C)[C@H](CC[C@@H]3C[C@@H](O)CC(=O)O3)[C@H]21 [Simvastatin, simvastatin]
Abdominal discomfort [2]: 0 n (%)
Abdominal distention [2]: 0 n (%)
Any AE [2]: 1 (8%) n (%)
Application site rash [2]: 1 (8%) n (%)
Arthragia [2]: 0 n (%)
Back pain [2]: 0 n (%)
Dizziness [2]: 0 n (%)
Eructation [2]: 0 n (%)
Headache [2]: 0 n (%)
Nasopharyngitis [2]: 0 n (%)
Pain in extremity [2]: 0 n (%)
Pollakiuria [2]: 1 (8%) n (%)

CCC(C)(C)C(=O)O[C@H]1C[C@@H](C)C=C2C=C[C@H](C)[C@H](CC[C@@H](O)C[C@@H](O)CC(=O)O)[C@H]21 [Simvastatin acid, simvastatin acid]
Ratio of geometric means (90% CI), AUC(0-t) (CYP3A4 [3]): 3.09 (1.05, 9.03)
Ratio of geometric means (90% CI), AUC(0–∞) (CYP3A4 [3]): 1.50 (0.48, 4.71)
Ratio of geometric means (90% CI), Cmax (CYP3A4 [3]): 2.30 (1.46, 3.63)
AUC(0-t) (CYP3A4 [4]; [6]): 2.49 ng·h/mL
Cmax (CYP3A4 [4]; [6]): 0.504 ng/mL
Tmax (CYP3A4 [4]; 10 mg, tmax of analyte, median (range), S = simvastatin 10 mg SD alone): 4.04 h
AUC(0-t) (CYP3A4 [4]; [7]): 7.93 ng·h/mL
AUC(0-t) (CYP3A4 [4]; [8]): 2.14 ng·h/mL
Cmax (CYP3A4 [4]; [7]): 1.3 ng/mL
Cmax (CYP3A4 [4]; [8]): 0.351 ng/mL
Tmax (CYP3A4 [4]; median tmax of analyte, simvastatin alone): 4 h
Tmax (CYP3A4 [4]; median tmax of analyte, simvastatin in combination with GSK2647544): 6 h
Tmax (CYP3A4 [4]; tmax of analyte, median (range), A1+S = simvastatin 10 mg SD plus GSK2647544 80 mg b.i.d. for 7 days): 5.92 h
Tmax (CYP3A4 [4]; tmax of analyte, median (range), P1+S = simvastatin 10 mg SD plus matched placebo b.i.d. for 7 days): 5.92 h

COCCN1CCC(N(Cc2ccc(-c3ccc(C(F)(F)F)cc3)cc2)C(=O)Cn2c(SCc3cccc(F)c3F)cc(=O)c3ccccc32)CC1 [rilapladib]
cognitive outcomes [5]: improved cognitive outcomes
